From patent US7641919B2, “Anti-bacterial plant compositions” (priority 2001, dated 2010)

Legend:
[1] = tested on: M. tuberculosis 27294 (a streptomycin sensitive strain, ATCC); test: BACTEC-460 growth inhibition (growth index, 14CO2); assay type: cell-based, Mycobacterium tuberculosis; conditions: positive control, 50 μg/ml
E-Coli 25922 = test: zone of inhibition against E. coli; assay type: cell-based, Escherichia coli; conditions: HPLC fractions of methylene chloride extract; 6 mm disc; control 10 micrograms streptomycin
Procedure: An HPLC separation and isolation of an active fraction was attempted. High Pressure Liquid Chromatography (HPLC) was performed using a Discovery RP-Amide C-16 Column, 15 cm long, 4.6 mm wide (Supelco, Bellefort, Pa.). An isocratic, i.e. steady concentration, of a polar solvent phase was used. The solvent phase consisted of dilute phosphoric acid in methanol. The flow rate was 2 ml/minute. Therefore exit is dependent on MW (larger MW exists later) and polarity. The more polar the compound, the quicker it solubilizes into the solvent, but it is retained longer in the static phase of the column which holds back the more polar compounds. The fractions were monitored by UV, at 254 nm wave-length. One to three fraction per plant extract were collected at the indicated times. […] See, for example, FIGS. 1-3. Based on consideration of the relative polarity and molecular weights of the compounds identified for the respective plants in the total methylene chloride extract, the compounds in the right-most column of table 5 “Additional Compounds” lists compounds which are not observed in the active fraction of the extract of the respective plants, but which are likely to be present in smaller quantities (“trace amounts”) in the active fraction and which might contribute to the anti-mycobacterial activity.

M. smegmatis 607 (ATCC) = test: agar-disk diffusion assay, zone of inhibition; assay type: cell-based, Mycobacterium smegmatis; conditions: HPLC fractions of methylene chloride extract; 6 mm disc; control 10 micrograms streptomycin

## [H]/N=C(/N)N[C@H]1[C@H](O)[C@@H](O)[C@H](O[C@@H]2O[C@@H](C)[C@](O)(C=O)[C@H]2O[C@@H]2O[C@@H](CO)[C@H](O)[C@@H](O)[C@@H]2NC)[C@@H](N/C(N)=N\[H])[C@@H]1O [Streptomycin]
[1]
  Δ G1 (growth index change): Positive control Streptomycin (50 μg/ml) resulting in a Δ G1 of −2.8
E-Coli 25922
  E-Coli 25922 ZOI (mm): 14 mm
M. smegmatis 607 (ATCC)
  M. Smegmatis ATCC 607 ZOI (mm): 17 mm
